Experimental data: PubChem BioAssay (NCI)
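Protocol summary: plate cells (96-well), add compound at 5 concentrations, incubate 48 h, interpolate endpoints linearly. The concentration for 50% growth inhibition is given as GI50. TGI denotes the concentration required for complete inhibition of growth.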

Experiments:
Assay in all cases: NCI tumour cell line growth inhibition, 48 h
OVCAR-3 ovarian = test system: OVCAR-3 ovarian
OVCAR-8 ovarian = test system: OVCAR-8 ovarian
BT-549 breast = test system: BT-549 breast
HS 578T breast = test system: HS 578T breast
786-0 renal = test system: 786-0 renal
A498 renal = test system: A498 renal
MDA-MB-468 breast = test system: MDA-MB-468 breast
SN12C renal = test system: SN12C renal
UO-31 renal = test system: UO-31 renal
SF-295 CNS = test system: SF-295 CNS
HT29 colon = test system: HT29 colon
SF-539 CNS = test system: SF-539 CNS
MOLT-4 leukemia = test system: MOLT-4 leukemia
HCT-15 colon = test system: HCT-15 colon
COLO 205 colon = test system: COLO 205 colon
SNB-75 CNS = test system: SNB-75 CNS
CAKI-1 renal = test system: CAKI-1 renal
SK-OV-3 ovarian = test system: SK-OV-3 ovarian
HOP-62 NSCLC = test system: HOP-62 NSCLC
SK-MEL-28 melanoma = test system: SK-MEL-28 melanoma
EKVX NSCLC = test system: EKVX NSCLC
SK-MEL-5 melanoma = test system: SK-MEL-5 melanoma
OVCAR-4 ovarian = test system: OVCAR-4 ovarian
RXF 393 renal = test system: RXF 393 renal
KM12 colon = test system: KM12 colon
M14 melanoma = test system: M14 melanoma
RPMI-8226 leukemia = test system: RPMI-8226 leukemia
UACC-257 melanoma = test system: UACC-257 melanoma
HOP-92 NSCLC = test system: HOP-92 NSCLC
HCT-116 colon = test system: HCT-116 colon
UACC-62 melanoma = test system: UACC-62 melanoma
LOX IMVI melanoma = test system: LOX IMVI melanoma
HL-60(TB) leukemia = test system: HL-60(TB) leukemia
SK-MEL-2 melanoma = test system: SK-MEL-2 melanoma
U251 CNS = test system: U251 CNS
NCI-H23 lung = test system: NCI-H23 lung
SR leukemia = test system: SR leukemia
MDA-MB-435 = test system: MDA-MB-435
SNB-19 CNS = test system: SNB-19 CNS
A549 NSCLC = test system: A549 NSCLC
IGROV1 ovarian = test system: IGROV1 ovarian
NCI-H460 lung = test system: NCI-H460 lung
MALME-3M melanoma = test system: MALME-3M melanoma
T-47D breast = test system: T-47D breast
TK-10 renal = test system: TK-10 renal
CCRF-CEM leukemia = test system: CCRF-CEM leukemia
OVCAR-5 ovarian = test system: OVCAR-5 ovarian
PC-3 prostate = test system: PC-3 prostate
ACHN renal = test system: ACHN renal
DU-145 prostate = test system: DU-145 prostate
MDA-MB-231 breast = test system: MDA-MB-231 breast
HCC-2998 colon = test system: HCC-2998 colon
SW-620 colon = test system: SW-620 colon
MCF7 breast = test system: MCF7 breast
SF-268 CNS = test system: SF-268 CNS
NCI-H522 lung = test system: NCI-H522 lung
K-562 leukemia = test system: K-562 leukemia
NCI-H226 lung = test system: NCI-H226 lung

CN1CCN(c2ccc(C(=O)/C=C/c3cc(Br)ccc3F)cc2)CC1
GI50 (OVCAR-3 ovarian): 5.81 µM
TGI (OVCAR-3 ovarian): 18.2 µM
GI50 (OVCAR-8 ovarian): 13.2 µM
TGI (OVCAR-8 ovarian): 26 µM
GI50 (BT-549 breast): 3.58 µM
TGI (BT-549 breast): 12.2 µM
GI50 (HS 578T breast): 13.3 µM
TGI (HS 578T breast): 38.8 µM
GI50 (786-0 renal): 10 µM
TGI (786-0 renal): 22.4 µM
GI50 (A498 renal): 17 µM
TGI (A498 renal): 31.7 µM
GI50 (MDA-MB-468 breast): 2510 nM
TGI (MDA-MB-468 breast): 9.77 µM
GI50 (SN12C renal): 11.2 µM
TGI (SN12C renal): 27.2 µM
GI50 (UO-31 renal): 8.55 µM
TGI (UO-31 renal): 21.5 µM
GI50 (SF-295 CNS): 15.2 µM
TGI (SF-295 CNS): 28.7 µM
GI50 (HT29 colon): 2870 nM
TGI (HT29 colon): 10.9 µM
GI50 (SF-539 CNS): 7.05 µM
TGI (SF-539 CNS): 21.7 µM
GI50 (MOLT-4 leukemia): 3.69 µM
TGI (MOLT-4 leukemia): 16.8 µM
GI50 (HCT-15 colon): 3.43 µM
TGI (HCT-15 colon): 14.7 µM
GI50 (COLO 205 colon): 11.8 µM
TGI (COLO 205 colon): 30.1 µM
GI50 (SNB-75 CNS): 3.25 µM
TGI (SNB-75 CNS): 16.6 µM
GI50 (CAKI-1 renal): 12.1 µM
TGI (CAKI-1 renal): 24.6 µM
GI50 (SK-OV-3 ovarian): 14.7 µM
TGI (SK-OV-3 ovarian): 28.6 µM
GI50 (HOP-62 NSCLC): 16.2 µM
TGI (HOP-62 NSCLC): 31.5 µM
GI50 (SK-MEL-28 melanoma): 19.7 µM
TGI (SK-MEL-28 melanoma): 36.2 µM
GI50 (EKVX NSCLC): 13.3 µM
TGI (EKVX NSCLC): 26.4 µM
GI50 (SK-MEL-5 melanoma): 12.9 µM
TGI (SK-MEL-5 melanoma): 25.7 µM
GI50 (OVCAR-4 ovarian): 11.3 µM
TGI (OVCAR-4 ovarian): 23.9 µM
GI50 (RXF 393 renal): 1270 nM
TGI (RXF 393 renal): 13.7 µM
GI50 (KM12 colon): 2690 nM
TGI (KM12 colon): 9.23 µM
GI50 (M14 melanoma): 6.38 µM
TGI (M14 melanoma): 19.7 µM
GI50 (RPMI-8226 leukemia): 1840 nM
TGI (RPMI-8226 leukemia): 6.07 µM
GI50 (UACC-257 melanoma): 15.5 µM
TGI (UACC-257 melanoma): 29.5 µM
GI50 (HOP-92 NSCLC): 6.71 µM
TGI (HOP-92 NSCLC): 21.9 µM
GI50 (HCT-116 colon): 1790 nM
TGI (HCT-116 colon): 3.93 µM
GI50 (UACC-62 melanoma): 15.1 µM
TGI (UACC-62 melanoma): 29.9 µM
GI50 (LOX IMVI melanoma): 3.2 µM
TGI (LOX IMVI melanoma): 12.5 µM
GI50 (HL-60(TB) leukemia): 2770 nM
TGI (HL-60(TB) leukemia): 14.5 µM
GI50 (SK-MEL-2 melanoma): 14.5 µM
TGI (SK-MEL-2 melanoma): 27.6 µM
GI50 (U251 CNS): 5.91 µM
TGI (U251 CNS): 18.9 µM
GI50 (NCI-H23 lung): 13.5 µM
TGI (NCI-H23 lung): 27.3 µM
GI50 (SR leukemia): 2580 nM
TGI (SR leukemia): 10.7 µM
GI50 (MDA-MB-435): 3.78 µM
TGI (MDA-MB-435): 13.5 µM
GI50 (SNB-19 CNS): 15.1 µM
TGI (SNB-19 CNS): 29.5 µM
GI50 (A549 NSCLC): 4.38 µM
TGI (A549 NSCLC): 16.5 µM
GI50 (IGROV1 ovarian): 12.8 µM
TGI (IGROV1 ovarian): 26.6 µM
GI50 (NCI-H460 lung): 15.6 µM
TGI (NCI-H460 lung): 31.1 µM
GI50 (MALME-3M melanoma): 15.3 µM
TGI (MALME-3M melanoma): 29.4 µM
GI50 (T-47D breast): 15 µM
TGI (T-47D breast): 47.3 µM
GI50 (TK-10 renal): 15 µM
TGI (TK-10 renal): 28.3 µM
GI50 (CCRF-CEM leukemia): 3.44 µM
TGI (CCRF-CEM leukemia): 15.6 µM
GI50 (OVCAR-5 ovarian): 18.6 µM
TGI (OVCAR-5 ovarian): 35.9 µM
GI50 (PC-3 prostate): 6.24 µM
TGI (PC-3 prostate): 21.3 µM
GI50 (ACHN renal): 13.4 µM
TGI (ACHN renal): 29.5 µM
GI50 (DU-145 prostate): 11.1 µM
TGI (DU-145 prostate): 23 µM
GI50 (MDA-MB-231 breast): 13.2 µM
TGI (MDA-MB-231 breast): 30 µM
GI50 (HCC-2998 colon): 2760 nM
TGI (HCC-2998 colon): 7.91 µM
GI50 (SW-620 colon): 3.52 µM
TGI (SW-620 colon): 14.2 µM
GI50 (MCF7 breast): 2670 nM
TGI (MCF7 breast): 11.5 µM
GI50 (SF-268 CNS): 15.1 µM
TGI (SF-268 CNS): 31.6 µM
GI50 (NCI-H522 lung): 13.5 µM
TGI (NCI-H522 lung): 27.1 µM
GI50 (K-562 leukemia): 2280 nM
TGI (K-562 leukemia): 11.8 µM
GI50 (NCI-H226 lung): 12.7 µM
TGI (NCI-H226 lung): 27.3 µM
